The values below come from patent US20220395500A1, “SMALL MOLECULE ACTIVATORS OF INTERFERON REGULATORY FACTOR 3 AND METHODS OF USE THEREOF” (Neuralexo, Inc., priority 2020, published 2022).

Assay [1] relates to IP-10 in mBMDMs (wild-type and IRF3 KO). In words: IP-10 induction in mouse bone marrow derived macrophages (ELISA). Format: cell-based. Conditions: increasing concentrations, wild-type vs IRF3 knock-out cells. The procedure: IP-10 levels were determined by mouse CXCL10/IP10 ELISA (Invitrogen, Carlsbad, Calif.) and are expressed as pg/ml. Data represents group mean+/−standard deviation.
IP-10 expression was determined by mouse CXCL10/IP10 ELISA (Invitrogen, Carlsbad, Calif.), and is expressed as pg/ml. Data represents group mean+/−standard deviation.
Target specificity of chemical entities corresponding to the ND and NA chemofamiles was examined by determining dose-dependent expression of IP10, a highly inducible, primary response gene that belongs to the C-X-C chemokine superfamily. […] IP-10 expression was monitored by a mouse CXCL10/IP10 ELISA (Invitrogen, Carlsbad, Calif.), and is expressed at FIG. 20 and FIG. 21 as pg/ml.

Assay [2] has as its system cytokines in mBMDMs (wild-type and IRF3 KO). In words: Cytokine induction in mBMDMs (20-plex ProcartaPlex, Luminex). Format: cell-based, mouse. The conditions noted are these: for cytokine induction in mBMDMs (IL6, MCP3, Rantes, TNFa, MCP1, Mip1b, Mip1a, Gro-alpha) vs vehicle: wild-type and IRF3 KO mBMDMs. The procedure: Cytokine induction is shown for both wild-type mouse mBMDMs and IRF3 KO mouse mBMDMs. Cytokine expression was measured using a cytokine 20-plex mouse ProcartaPlex kit (Invitrogen, Carlsbad, Calif.) for labeling of multiple cytokines within an individual sample and run on a Luminex (Austin, Tex.) 200 instrument. Data is expressed as pg/ml. Shown are group means+/−SEM; […], **p<0.01, ***p<0.001, ****p<0.0001.
Cytokine induction is shown for both wild-type mouse mBMDMs and IRF3 KO mouse mBMDMs. Cytokine expression was measured using a cytokine 20-plex mouse ProcartaPlex kit (Invitrogen) for labeling of multiple cytokines within an individual sample and run on a Luminex 200 instrument. Data is expressed as pg/ml. Shown are group means+/−SEM; […], **p<0.01, ***p<0.001, ****p<0.0001.
Cytokine induction is shown for both wild-type mouse mBMDMs and IRF3 KO mouse mBMDMs. Cytokine expression measured using a cytokine 20-plex mouse ProcartaPlex kit (Invitrogen) for labeling of multiple cytokines within an individual sample and run on a Luminex 200 instrument. Data is expressed as pg/ml. Shown are group means+/−SEM; […], **p<0.01, ***p<0.001, ****p<0.0001.
Cytokine expression at each of FIGS. 22A-23B was monitored using a cytokine 20-plex mouse ProcartaPlex kit (Invitrogen, Carlsbad, Calif.) for labeling of multiple cytokines within an individual sample and run on a Luminex 200 instrument, and is expressed at FIGS. 22A-23B as pg/ml.

Assay [3] deals with IRF3 activating pathway (TRIF, IPS1, STING) in THF cell lines. In words: Interferon dependent luciferase reporter in telomerized human fibroblasts (THF) lacking adapter molecules. The conditions noted are these: WT THF, IPS1 KO, 23 μM compound or 313 ng/ml LPS. Format: cell-based. The procedure:
Shown is fold-change of an interferon dependent luciferase reporter expressed in various telomerized human fibroblasts (THF) cell lines lacking key adapter molecules in the IRF3 activating pathway (WT THF, IPS1 KO, STING KO, and TRIF KO) in response to different treatments (untreated, Sendai 1/100, 313 ng/ml LPS, 23 μM NA-42). Shown are group means+/−SEM.
Select chemical entities corresponding to the NA and ND chemofamilies were examined as to their TRIF-dependency of IRF3 induction. TRIF, or TIR-domain-containing adapter-inducing interferon-β, is an adapter in responding to activation of toll-like receptors (TLRs). For reference, FIG. 26A illustrates a cell-signalling pathway including TRIF, along with TLR4, TLR3, IPS1, STING and IRF3. […] The treatment with Sendai 1/100 serves as an IPS1-dependent control, and the treatment with 313 ng/ml LPS serves as a TRIF-dependent control. As shown at FIG. 26B, treatment with 313 ng/ml LPS induces robust IRF3 induction in WT THF, IPS1 KO, and STING KO, but not in the TRIF KO, showing that LPS induction is TRIF-dependent. […] Assessment of fold change IRF3 was determined via measurement of the interferon dependent luciferase reporter.

Assay [4] has as its system plasma cytokines IL-6 and MCP1. In words: Plasma cytokine induction in vivo in mice. Conditions: WT C57/BL6 mice, 10 mg/kg, i.v. On the set-up: species or system mouse. The procedure: FIG. 27A is a bar graph illustrating the ability of NA-42 to induce plasma cytokine expression in vivo in mice. […] Expression is represented as pg/ml.
FIG. 27B is a bar graph illustrating the ability of ND-13 to induce plasma cytokine expression in vivo in mice. […] Expression is represented as pg/ml.
Plasma cytokine levels were evaluated using a cytokine 20-plex mouse ProcartaPlex kit (Invitrogen) for labeling of multiple cytokines within an individual sample and run on a Luminex 200 instrument.
Select chemical entities corresponding to the NA and ND chemofamilies were examined as to their ability to induce the expression of various cytokines in vivo. […] Shown at FIG. 27A is a representative example showing NA-42 induction of IL-6 (top panel) and MCP1 (bottom panel).

Assay [5] concerns Chikungunya Virus (CHIKV). In words: Adjuvant effect on anti-CHIKV total IgG titers (CHIKV VLP prime/boost). The assay is classed as in vivo, mouse. Conditions: C57BL/6 mice, IM prime and boost, 3 weeks post-boost. The procedure:
Conditions shown include virus-like particle (VLP) alone, VLP+5 mg/kg ND13, VLP+10 mg/kg ND13, VLP+5 mg/kg NA-42, and VLP+10 mg/kg NA-42. Depicted is Log 10 antibody titer representing anti-CHIKV Total IgG. Individual samples are depicted as filled circles for each condition. Bar graphs represent average geometric mean titers for each treatment cohort+standard deviation.
Select chemical entities corresponding to the NA and ND chemofamilies were examined as to their ability to act as adjuvants to enhance vaccine platforms. FIG. 28 depicts a representative example showing how NA-42 and ND-13 can enhance antibody titers to a Chikungunya Virus (CHIKV) challenge. C57BL/6 mice were primed and boosted IM with 10^6 PFU equivalents of CHIKVLP alone or in the presence of ND13 or NA42; 3 weeks post-boost mice were euthanized and total IgG reactive with CHIKV was measured by ELISA in duplicate. Data presented are average geometric mean titers for each treatment cohort including each animal. Specifically, FIG. 28 depicts various conditions (virus-like particle (VLP), VLP+5 mg/kg ND13, VLP+10 mg/kg ND13, VLP+5 mg/kg NA-42, and VLP+10 mg/kg NA-42) plotted against Log 10 antibody titer representing Anti-CHIKV Total IgG.

As for `CCOc1cccc(COc2ccc(C(=O)Nc3ccc(N4CCN(C(=O)c5cccs5)CC4)cc3)cc2)c1` [NA-42, 4-((3-ethoxybenzyl)oxy)-N-(4-(4-(thiophene-2-carbonyl)piperazin-1-yl)phenyl)benzamide], the “induction of IP-10 in mBMDMs” value in assay [1] was “IRF3 dependent induction”. In assay [2], the “off-target inflammatory activity in mBMDMs” value is on record as “minimal off-target inflammatory activity” and the “cytokine induction in mBMDMs (IL6, MCP3, Rantes, TNFa, MCP1, Mip1b, Mip1a, Gro-alpha) vs vehicle” value is “IRF3 dependent cytokine induction”. In assay [3], the “TRIF-dependency of IRF3 induction” value is “TRIF dependent”. The “plasma IL-6 and MCP1 expression in vivo” value in assay [4] is recorded as “robust expression”. Also, the “antibody titers to CHIKV (Anti-CHIKV Total IgG) compared to VLP alone” value (“antibody titers to CHIKV … compared to VLP alone” for short) in assay [5] (VLP + 5 mg/kg) is given as “robustly enhances”. Also, the “antibody titers to CHIKV … compared to VLP alone” value in assay [5] (VLP + 10 mg/kg) is “robustly enhances”.
Consider `COc1ccc(C(=O)Nc2cc(-c3nc4cc(C)c(C)cc4o3)ccc2C)cc1[N+](=O)[O-]` [ND-13, N-(5-(5,6-dimethylbenzo[d]oxazol-2-yl)-2-methylphenyl)-4-methoxy-3-nitrobenzamide], for which the “induction of IP-10 in mBMDMs” value in assay [1] is given as “IRF3 dependent induction”. Further, in assay [2], the “off-target inflammatory activity in mBMDMs” value is “minimal off-target inflammatory activity” and the “cytokine induction in mBMDMs (IL6, MCP3, Rantes, TNFa, MCP1, Mip1b, Mip1a, Gro-alpha) vs vehicle” value is given as “IRF3 dependent cytokine induction”. In addition, the “TRIF-dependency of IRF3 induction” value in assay [3] is recorded as “TRIF-dependent”. In addition, the “plasma IL-6 and MCP1 expression in vivo” value in assay [4] was “robust”. In assay [5] (VLP + 10 mg/kg), the “antibody titers to CHIKV … compared to VLP alone” value is given as “robustly enhances”.
